Laboratory results taken from article PMC9977638 (Medicinal Chemistry Research, 2023).

Target: T1, human recombinant COX-2 (Homo sapiens, UniProt P35354)
T1 sequence (P35354 18-604): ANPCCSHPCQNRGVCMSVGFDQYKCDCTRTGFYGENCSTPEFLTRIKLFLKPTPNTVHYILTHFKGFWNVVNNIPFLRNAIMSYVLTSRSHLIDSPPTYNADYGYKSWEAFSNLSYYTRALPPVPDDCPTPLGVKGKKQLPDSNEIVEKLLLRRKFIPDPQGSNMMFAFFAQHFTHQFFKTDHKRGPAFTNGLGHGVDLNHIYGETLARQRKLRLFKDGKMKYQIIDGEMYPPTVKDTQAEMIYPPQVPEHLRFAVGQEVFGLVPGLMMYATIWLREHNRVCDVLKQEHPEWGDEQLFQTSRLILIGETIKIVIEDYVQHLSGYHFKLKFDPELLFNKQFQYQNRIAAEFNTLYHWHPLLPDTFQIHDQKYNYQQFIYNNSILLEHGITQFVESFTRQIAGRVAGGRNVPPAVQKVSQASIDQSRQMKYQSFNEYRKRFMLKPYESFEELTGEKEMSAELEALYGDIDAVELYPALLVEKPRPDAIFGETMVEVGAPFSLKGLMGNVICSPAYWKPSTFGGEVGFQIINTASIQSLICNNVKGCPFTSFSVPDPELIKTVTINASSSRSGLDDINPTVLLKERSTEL
Type: biochemical
Details: COX-1 IC50/COX-2 IC50

Question: Which “Selectivity index (S.I.)” value does the source give for `Cc1ccc(Nc2c(-c3ccc(S(C)(=O)=O)cc3)nc3c(C)cccn23)cc1` [Compound 5n, 8-Methyl-2-(4-(methylsulfonyl)phenyl)-N-(p-tolyl)imidazo[1,2-a]pyridin-3-amine] here?
Answer: The value was 508.
